Measured values published in patent US7803557B2, “Methods for identification of eicosapentaenoic acid analogs using anti-inflammatory receptors” (The Brigham and Women's Hospital, Inc., priority 2003, dated 2010).
Read-outs that look alike come from different tables or passages of the source.

Assays:
[1] = test system: leukocyte infiltration in TNF-a induced dorsal air pouch; test: Murine dorsal air-pouch model (TNF-a induced leukocyte infiltration); assay type: in vivo, mouse; set-up: inhibition of leukocyte recruitment: dose or concentration left out as unconfirmed
Protocol: Dorsal air pouches were raised on male FvB mice (6-8 wk) by injecting 3 ml of sterile air subcutaneously on days 0 and 3. On day 6, 100 ng/mouse of compounds were injected into tail vein. Inflammation in the air-pouch was induced by intrapouch injection of mouse recombinant TNF-a (100 ng/pouch), and pouch lavages were collected at 4 h and cells were enumerated.

[2] = test system: leukocyte infiltration in zymosan-induced peritonitis; test: Zymosan induced peritonitis (leukocyte infiltration); assay type: in vivo, mouse; conditions: for inhibition of leukocyte recruitment: 100 ng/mouse intravenously, 2 h
Protocol: For peritonitis, 100 ng/mouse of Resolvin E1 or related structures was injected into tail vein and followed by 1 ml zymosan A (1 mg/ml) into the peritoneum. Peritoneal lavages were collected at 2 h and cells were enumerated.
18R-HEPE (100 ng), Resolvin E1 (100 ng), or Indomethacin (100 ng) was injected intravenously into mouse tails followed by zymosan A into the peritoneum. Mice were sacrificed, and peritoneal lavages were collected (2 h) and cells enumerated (n=3).

HEK293-Reso ER1 cells = test: MAP kinase (ERK) activation in HEK293-Reso ER1 cells; assay type: cell-based, human
Protocol: (§1) MAP kinase activation in monocytes and HEK293 cells after treatment with 100 nM of each compound was determined. After incubations, cells were lysed in cold lysis buffer (50 mM Tris-HCl, pH 8.0, 150 mM NaCl, 0.5 mM EDTA, 1.0% NP-40, 0.5% sodium deoxycolate, 10 mM NaF, 10 mM sodium pyrophosphate) containing protease inhibitor cocktail (Sigma). […] of protein was separated on SDS-PAGE and immunoblot was performed using anti-phospho-p44/42 MAP kinase (Cell Signaling) and anti-ERK (Santa Cruz) antibodies. For PTX treatment, HEK-Reso ER1 cells were incubated with or without PTX (200 ng/ml) for 24 h at 37° C. and ERK activation was monitored by addition of Resolvin E1 (100 nM) for 5 min.
(§2) FIG. 4d illustrate effects of PTX on Resolvin E1 induced activation and NF-kB inhibition. In—(a) HEK-hReso ER1 cells were incubated with or without PTX (200 ng/ml) for 24 h at 37 C and ERK activation was monitored by addition of Resolvin E1 (100 nM) for 5 min. In (b) HEK293 cells were transiently transfected with pcDNA-hReso ER1, pNF-kB-luciferase and pRL-TK. After 24 h with or without PTX (200 ng/ml), cells were exposed to Resolvin E1 (50 nM) for 30 min, stimulated with TNF-a (1.0 ng/ml) for 5 h, and luciferase activity was measured.

[3] = test system: HEK-Reso ER1 stable transformants; test: Calcium mobilization in HEK-Reso ER1 stable transformants; assay type: cell-based, human
Reso ER1 [4] = target: T1, Reso ER1 (Homo sapiens, UniProt Q99788); test: [35S]-GTPgS binding assay, membranes expressing Reso ER1; assay type: biochemical; set-up: expressed in transfected cells; conditions: isolated membranes from cells expressing Reso ER1; concentration-dependent
T1 sequence (Q99788 1-373): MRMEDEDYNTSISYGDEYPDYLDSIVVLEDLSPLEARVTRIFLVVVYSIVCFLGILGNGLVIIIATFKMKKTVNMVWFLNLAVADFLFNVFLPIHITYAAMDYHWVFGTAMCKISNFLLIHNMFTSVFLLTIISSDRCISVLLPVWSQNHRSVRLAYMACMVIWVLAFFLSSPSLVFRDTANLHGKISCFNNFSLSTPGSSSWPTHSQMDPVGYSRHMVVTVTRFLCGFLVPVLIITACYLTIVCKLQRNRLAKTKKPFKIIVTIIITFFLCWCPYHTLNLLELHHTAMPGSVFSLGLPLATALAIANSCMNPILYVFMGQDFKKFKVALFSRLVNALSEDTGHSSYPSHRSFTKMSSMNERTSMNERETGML
Protocol: HEK293 cells stably expressing human Reso ER1 were homogenized in ice-cold TED buffer (20 mM Tris-HCl pH7.5/1 mM EDTA/5 mM MgCl2/1 mM DTT). Membrane fraction ([…]) was incubated in […] of GTP-binding buffer (50 mM Hepes, pH7.5/100 mM NaCl/1 mM EDTA/5 mM MgCl2/1 mM DTT) containing 0.1 nM [^35S]-GTPgS (>1000 Ci/mmol, Amersham) and […] for 30 min at 30° C. The bound and unbound [35S]-GTPgS was separated by rapid filtration through GF/C filters, and counted by liquid scintillation. Nonspecific binding was determined in the presence of […] unlabeled GTPgS. Basal [^35S]-GTP-gS binding was 81.6+1.5 cpm/mg protein.

splenic CD11c+ DCs = test: In vivo activation of spleen dendritic cells with pathogen extract (STAg); set-up: species or system mouse; DC migration into T cell areas of the spleen: dose or concentration left out as unconfirmed; conditions: STAg challenge
Protocol: (§3) Experiments were performed essentially as in (19). STAg was prepared from sonicated T. gondii (RH strain) tachzoytes. For isolated DC experiments, 70-85% CD11c positive DCs were isolated from spleen. CD11c+DC suspensions (1.0×10^6 cells/ml) were spread into 96-well plates and incubated for 24 h with Resolvin E1 before the addition of STAg ([…]). After overnight culture, supernatants were collected and IL-12p40 was measured with a sandwich ELISA. For in vivo treatments, C57BL/6 mice (n=3 per group) were injected intravenously with 100 ng Resolvin E1. After 18 h the animals were challenged intraperitoneally with PBS (0.2 ml/mouse), STAg (5 mg/ml) and sacrificed after an additional 6 h. CD11c+DCs were isolated from spleen and IL12-p40 secretion was measured at 24 h. For DC migration, Splenic frozen section from mice treated as above but given […] of Resolvin E1 or vehicle were stained for CD11c and counterstained with hematoxylin.

[5] = LC-MS/MS analysis of Resolvin E1 in human plasma; assay type: in vivo; conditions: oral, healthy human volunteers given EPA and aspirin, 6 donors
Protocol: Human plasma samples were collected at 4 hours after oral administration of fish oil supplement (Fish Oil Concentrate, Walgreens) containing EPA (1 g) and DHA (0.7 g) followed by aspirin (160 mg) at 3 h in six healthy volunteers. Plasma samples were extracted by C18 solid phase extraction with d4-LTB4 (Cascade) as internal standard for LC-MS/MS analysis (7) using a Finnigan LCQ liquid chlomatography ion trap tandem mass spectrometer equipped with a LUNA C18-2 (100×2 mm×[…]) column and UV diode array detector using mobile phase (methanol:water:acetate at 65:35:0.01) from 0 to 8 min, ramped to methanol 8 to 30 min, with a 0.2 ml/min flow rate.

[6] = test system: mock-transfected HEK293 cells; test: MAP kinase (ERK) activation in mock-transfected HEK293 cells; assay type: cell-based, human; conditions: 100 nM
Protocol: as §1

[7] = test system: peripheral blood monocytes; test: MAP kinase (ERK) activation in peripheral blood monocytes; assay type: cell-based, human; conditions: 100 nM
Protocol: as §1

mouse splenic CD11c+ DCs = test: IL-12p40 production by isolated splenic CD11c+ DCs stimulated with STAg; assay type: cell-based
Protocol: as §3
Chemically synthesized siRNA for mouse Reso ER1 (5′-[…]dTdT-3′) and Non-specific control IX siRNA (5′-[…]-3′) were from Dharmacon Research. Spleen cells (1.0×10^6 cells/ml) were transfected using Chariot (Active Motif) following manufacturers' instructions. Briefly, siRNA was mixed with Chariot transfection reagent and incubated at room temperature for 30 minutes. […]

[8] = test system: human peripheral blood monocytes; test: Calcium mobilization in human peripheral blood monocytes; assay type: cell-based
Reso ER1 [9] = target: T1, Reso ER1; test: NF-kB reporter gene assay, HEK293 cells transfected with Reso ER1; assay type: cell-based; set-up: expressed in transfected cells; host or cells: HEK293, transient transfection with pcDNA3-Reso ER1
Protocol: HEK293 cells (1.0′10^5 cells) were transiently transfected with 50 ng pNF-kB-luciferase (Stratagene), 500 ng of either pcDNA3 or pcDNA3-GPCRs and the internal standard pRL-TK (Promega) using Superfect transfection reagent (Qiagen). After 24 h, cells were exposed to the test compounds for 30 min, stimulated with recombinant human TNF-a (1.0 ng/ml, BD Pharmingen) for 5 h. Luciferase activity was measured by the Dual-Luciferase reporter assay system (Promega). Basal induction of luciferase activity by TNF-a was >150-fold in this system. Efficient expression of GPCRs to the cell surface was observed by immunostaining using HA-tagged GPCR constructs. For PTX treatment, HEK293 cells were treated with PTX (200 ng/ml) for 24 h before stimulation.
as §2

[10] = target: recombinant LTB4 receptor BLT 1 (Homo sapiens, UniProt Q15722); conditions: higher concentrations; reference (7); cited from earlier work
[11] = test system: leukocyte infiltration in TNF-a induced dorsal air pouch; conditions: 1.0 mg/mouse, reference (9); cited from earlier work

Sequence of recombinant LTB4 receptor BLT 1 (Q15722 whole entry): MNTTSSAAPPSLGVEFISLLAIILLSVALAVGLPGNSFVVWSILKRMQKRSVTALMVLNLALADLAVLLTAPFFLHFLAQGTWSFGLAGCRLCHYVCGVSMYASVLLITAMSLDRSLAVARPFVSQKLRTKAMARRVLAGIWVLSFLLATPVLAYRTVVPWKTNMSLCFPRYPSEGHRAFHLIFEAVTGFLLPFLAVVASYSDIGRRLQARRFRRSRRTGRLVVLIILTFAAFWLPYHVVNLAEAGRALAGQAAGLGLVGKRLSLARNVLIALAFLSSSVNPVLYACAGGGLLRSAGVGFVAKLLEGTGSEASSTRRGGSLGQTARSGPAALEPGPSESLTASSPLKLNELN

## C[C@@H]1C[C@H]2[C@@H]3CCC4=CC(=O)C=C[C@]4(C)[C@@]3(F)[C@@H](O)C[C@]2(C)[C@@]1(O)C(=O)CO [dexamethasone, reference compound]
[1]; local administration, dorsal air pouch
  inhibition of leukocyte recruitment: 60%

## CCC(O)C=CC=CCC(O)C=CC=CC=CC(O)CCCC(=O)O (single isomer, unassigned) [6-trans,14-trans isomer]
[2]; versus Resolvin E1
  reduced potency for reducing leukocyte infiltration: ~70%

## CC[C@@H](O)/C=C/C=C\C[C@@H](O)/C=C/C=C/C=C\[C@@H](O)CCCC(=O)O [Resolvin E1, 5S,12R,18R-trihydroxy-6Z,8E,10E,14Z,16E-eicosapentaenoic acid]
HEK293-Reso ER1 cells; 100 nM, HEK293-Reso ER1 cells
  phosphorylation of ERK MAP kinase: increased phosphoryation
HEK293-Reso ER1 cells; PTX 200 ng/ml 24 h, Resolvin E1 100 nM, 5 min
  Resolvin E1 dependent ERK activation after pertussis toxin: abolished
[3]
  calcium mobilization: did not evoke a calcium mobilization
Reso ER1 [4]
  specific [35S]-GTPgS binding: increased selectively
Splenic CD11c+ DCs; 100 ng intravenously, IL-12p40 from splenic CD11c+ DCs
  IL-12 production in vivo: blocked IL-12 production
Splenic CD11c+ DCs; Resolvin E1, CD11c staining
  DC migration into T cell areas of the spleen: blocked
[5]
  concentration at 4 h: 0.1 to 0.4 ng/mL
[1]; 100 ng/mouse, tail vein, TNF-a induced dorsal air pouch
  inhibition of leukocyte infiltration: 50-70%
[6]
  phosphorylation of ERK MAP kinase: not in mock-transfected HEK293 cells
[7]
  phosphorylation of ERK MAP kinase: increased phosphoryation
Mouse splenic CD11c+ DCs; isolated mouse splenic CD11c+ DCs, within the nanomolar range
  IL-12p40 production by STAg: markedly inhibited
Mouse splenic CD11c+ DCs; spleen cells transfected with siRNA, STAg stimulation
  action in regulating IL-12 production from DCs after siRNA specific for mouse Reso ER1: eliminated
[8]; 100 nM, data not shown, cell type not restated
  inhibition of calcium mobilization by 100 nM LTB4: did not inhibit calcium mobilization
[8]; human peripheral blood monocytes
  calcium mobilization: did not evoke a calcium mobilization
[2]
  inhibition of leukocyte recruitment: 50-60%
Reso ER1 [9]; read-out: EC50, inhibition of TNF-a induced NF-kB activation
  EC50: ~1 nM
[10]
  concentration at which it interacts with recombinant BLT1: ~0.5 mM

## COc1ccc2c(c1)c(CC(=O)O)c(C)n2C(=O)c1ccc(Cl)cc1 [indomethacin, reference compound]
[2]
  inhibition of leukocyte recruitment: 25%

## CC(=O)Oc1ccccc1C(=O)O [aspirin, reference compound]
Reso ER1 [9]; HEK293, 1 mM, read-out: non-receptor dependent inhibition of NF-kB
  inhibition at 1000 µM: 26.2%
[11]
  inhibition of leukocyte recruitment: 70%

## CC[C@H](O)/C=C/C=C\C[C@@H](O)/C=C/C=C/C=C\[C@@H](O)CCCC(=O)O (single isomer, unassigned) [18S isomer]
[2]
  activity compared with native Resolvin E1 containing 18R: essentially equivalent activity
